Assay results from PubChem BioAssay AID256 (DTP/NCI, 2004).
Inconclusive results and toxic doses are left out.

System: CD2F1 mice, L1210 leukemia ip, survival T/C
Assay: NCI In Vivo Anticancer Drug Screen. Data for tumor model L1210 Leukemia (intraperitoneal) in CD2F1 (CDF1) mice
Settings: endpoint: mean survival time, higher = longer survival
Method in brief: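 Transplantable tumor in mice; compound-treated vs vehicle-treated groups. Read-out = treated/control ratio of the measured endpoint.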

For `CCOC(=O)NC(C)(C)CN(C(=O)OCC)C(C)(C)CO`, the T/C (dose: 50.0 mg/kg/injection, schedule: Q01DX009 (ip), vehicle: saline) was 102 % of control and the T/C (dose: 100.0 mg/kg/injection, schedule: Q01DX009 (ip), vehicle: saline) was 98 % of control.
In the case of `COC(=O)c1cccc(I)c1`, the T/C (dose: 100.0 mg/kg/injection, schedule: Q04DX002 (ip), vehicle: saline with Tween-80) is reported as 100 % of control, the T/C (dose: 200.0 mg/kg/injection, schedule: Q04DX002 (ip), vehicle: saline with Tween-80) is reported as 100 % of control and the T/C (dose: 400.0 mg/kg/injection, schedule: Q04DX002 (ip), vehicle: saline with Tween-80) is reported as 96 % of control.
With `CCOC(=O)N(Cl)Cl` the T/C (dose: 12.5 mg/kg/injection, schedule: Q04DX003 (ip), vehicle: saline) was 102 % of control.
For `Nc1ccn(C2OC(COP(=O)(O)O)C(O)C2O)c(=O)n1` (stereo not given), the T/C (dose: 4.0 mg/kg/injection, schedule: Q03HX024 (ip), vehicle: saline) was 337 % of control, the T/C (dose: 8.0 mg/kg/injection, schedule: Q01DX008 (ip), vehicle: saline) was 176 % of control and the T/C (dose: 8.0 mg/kg/injection, schedule: Q03HX024 (ip), vehicle: saline) was 302 % of control. For the same compound, the T/C (dose: 16.0 mg/kg/injection, schedule: Q01DX008 (ip), vehicle: saline) was 183 % of control, the T/C (dose: 16.0 mg/kg/injection, schedule: Q01DX009 (ip), vehicle: saline) was 185 % of control and the T/C (dose: 16.0 mg/kg/injection, schedule: Q03HX024 (ip), vehicle: saline) was 487 % of control. For the same compound, the T/C (dose: 16.0 mg/kg/injection, schedule: Q03HX024 (oral), vehicle: saline) was 228 % of control, the T/C (dose: 32.0 mg/kg/injection, schedule: Q01DX008 (ip), vehicle: saline) was 173 % of control and the T/C (dose: 32.0 mg/kg/injection, schedule: Q01DX009 (ip), vehicle: saline) was 215 % of control. For the same compound, the T/C (dose: 32.0 mg/kg/injection, schedule: Q03HX024 (ip), vehicle: saline) was 240 % of control, the T/C (dose: 32.0 mg/kg/injection, schedule: Q03HX024 (oral), vehicle: saline) was 266 % of control and the T/C (dose: 64.0 mg/kg/injection, schedule: Q01DX001 (ip), vehicle: saline) was 121 % of control. The T/C (dose: 64.0 mg/kg/injection, schedule: Q01DX008 (ip), vehicle: saline) was 155 % of control, the T/C (dose: 64.0 mg/kg/injection, schedule: Q01DX008 (oral), vehicle: saline) was 156 % of control and the T/C (dose: 64.0 mg/kg/injection, schedule: Q01DX009 (ip), vehicle: saline) was 212 % of control. The T/C (dose: 64.0 mg/kg/injection, schedule: Q03HX024 (oral), vehicle: saline) was 300 % of control, the T/C (dose: 128.0 mg/kg/injection, schedule: Q01DX001 (ip), vehicle: saline) was 117 % of control and the T/C (dose: 128.0 mg/kg/injection, schedule: Q01DX001 (oral), vehicle: saline) was 106 % of control. For the same compound, the T/C (dose: 128.0 mg/kg/injection, schedule: Q01DX008 (oral), vehicle: saline) was 167 % of control, the T/C (dose: 128.0 mg/kg/injection, schedule: Q01DX009 (oral), vehicle: saline) was 155 % of control and the T/C (dose: 128.0 mg/kg/injection, schedule: Q03HX024 (oral), vehicle: saline) was 155 % of control. The T/C (dose: 128.0 mg/kg/injection, schedule: Q04DX003 (oral), vehicle: saline) was 120 % of control, the T/C (dose: 256.0 mg/kg/injection, schedule: Q01DX001 (ip), vehicle: saline) was 112 % of control and the T/C (dose: 256.0 mg/kg/injection, schedule: Q01DX001 (oral), vehicle: saline) was 107 % of control. The T/C (dose: 256.0 mg/kg/injection, schedule: Q01DX009 (oral), vehicle: saline) was 172 % of control, the T/C (dose: 256.0 mg/kg/injection, schedule: Q04DX003 (oral), vehicle: saline) was 121 % of control and the T/C (dose: 512.0 mg/kg/injection, schedule: Q01DX001 (oral), vehicle: saline) was 109 % of control. For the same compound, the T/C (dose: 512.0 mg/kg/injection, schedule: Q01DX009 (oral), vehicle: saline) was 182 % of control, the T/C (dose: 1024.0 mg/kg/injection, schedule: Q01DX001 (oral), vehicle: saline) was 155 % of control and the T/C (dose: 1024.0 mg/kg/injection, schedule: Q01DX009 (oral), vehicle: saline) was 104 % of control. For the same compound, the T/C (dose: 1024.0 mg/kg/injection, schedule: Q04DX003 (oral), vehicle: saline) was 164 % of control.
With `CC1CC(C)(C)NC(CCC2NC(C)(C)CC(C)O2)O1` (stereo not given) the T/C (dose: 100.0 mg/kg/injection, schedule: Q01DX009 (ip), vehicle: saline with Tween-80) was 92 % of control.
`CCCCCCCC(=O)[O][Hg][CH2]C1COC([CH2][Hg][O]C(=O)CCCCCCC)CO1` (stereo not given) was tested, and the T/C (dose: 6.25 mg/kg/injection, schedule: Q01DX009 (ip), vehicle: saline with Tween-80) was 106 % of control and the T/C (dose: 12.5 mg/kg/injection, schedule: Q01DX009 (ip), vehicle: saline with Tween-80) was 96 % of control.
